Test results reported in patent US12648997B2, “Treatment of infections” (priority 2018, dated 2026).

Experiments:
[1] = Stability of daptomycin in transient daptomycin-linker hydrogel conjugates versus free daptomycin; format: physicochemical; conditions: pH 7.4, 37° C, at day seven; peak area ratio at 215 nm
Procedure: The relative stability of the covalently bound daptomycin in the transient daptomycin-linker hydrogel conjugates towards hydrolytic and other degradation pathways in comparison to free daptomycin was investigated. For that purpose, free daptomycin, transient daptomycin-linker HA-conjugate 5 and transient daptomycin-linker PEG-conjugate 9b were incubated at pH 7.4 and 37° C. The supernatants of the carrier samples were exchanged five times within a week and the daptomycin purity in these samples was analyzed by UPLC. In parallel, analytical samples of the free daptomycin control solution were also analyzed by UPLC at the same incubation times. The purity of daptomycin in the samples was calculated as the ratio of the peak area of the intact daptomycin peak at 215 nm relative to the area sum of all daptomycin-related peaks identified at 215 nm.

[2] = test system: Methicillin-sensitive Staphylococcus aureus (MSSA) MN8 strain biofilms; experiment: In vitro biofilm eradication study (Calgary Biofilm Device); format: cell-based; conditions: TSB with 12 mg/mL BSA and 50 μg/mL calcium, 37° C, OD600
Procedure: This study was performed to investigate the daptomycin concentration required to fully eradicate biofilms when constantly exposed to daptomycin for one or three days. […] Biofilms were grown in tryptic soy broth (TSB) using a Methicillin-sensitive Staphylococcus aureus (MSSA) MN8 strain. Aliquots of a diluted culture of this bacterial strain in TSB, obtained from an inoculum of the respective strain on trypticase soy agar plates (TSA), were transferred to all but the negative control wells of flat-bottom 96-well microtiter plates. The bacterial biofilms were formed by immersing lids with pegs into the 96-well microtiter plates, followed by incubation for 24, 48 and 72 hours at 37° C. The differently aged biofilms were subsequently transferred into new microtiter plates using TSB media with addition of 12 mg/mL bovine serum albumin (BSA) and 50 μg/mL calcium as CaCl2. Daptomycin was added to the media as required to obtain concentrations of 2-1458 μg/mL. The plates were incubated for one or three days at 37° C. The biofilms were detached from the pegs by centrifugation, generating bacterial suspensions in the wells of the microtiter plates. The optical densities of these suspensions were measured (OD600) to determine the biofilm eradication concentrations. All measurements were performed in triplicates.

SMILES: CCCCCCCCCC(=O)N[C@@H](Cc1c[nH]c2ccccc12)C(=O)N[C@H](CC(N)=O)C(=O)N[C@@H](CC(=O)O)C(=O)N[C@@H]1C(=O)NCC(=O)N[C@@H](CCCN)C(=O)N[C@@H](CC(=O)O)C(=O)N[C@H](C)C(=O)N[C@@H](CC(=O)O)C(=O)NCC(=O)N[C@H](CO)C(=O)N[C@@H]([C@H](C)CC(=O)O)C(=O)N[C@@H](CC(=O)c2ccccc2N)C(=O)O[C@@H]1C [daptomycin]
- purity of the free daptomycin in the solution control sample [1]: 72%
- daptomycin concentration needed to fully eradicate biofilms ([2]; 24 hours exposure, biofilms of all ages (24, 48, 72 h)): 486 µg/mL
- daptomycin concentration needed to fully eradicate biofilms ([2]; three days exposure): 162 µg/mL
